Measurements from the NIST ThermoML archive (doi:10.1016/j.jct.2013.04.001).

Assay: mn = molality of the nth substance listed, in mol/kg
Conditions: 101 kPa, Liquid; for mass density: Pycnometric method; for viscosity: Capillary tube (Ostwald / Ubbelohde) method

N=C(N)NCCC[C@H](N)C(=O)O [L-arginine] + O
Conditions	mass density [kg/m3]	viscosity [mPa·s]
293.15 K, m1 = 0.025	999.51	–
293.15 K, m1 = 0.05	1000.78	–
293.15 K, m1 = 0.075	1002.04	–
293.15 K, m1 = 0.1	1003.3	–
293.15 K, m1 = 0.125	1004.55	–
293.15 K, m1 = 0.15	1005.79	–
293.15 K, m1 = 0.175	1007.02	–
293.15 K, m1 = 0.2	1008.25	–
298.15 K, m1 = 0.025	998.35	0.9009
298.15 K, m1 = 0.05	999.62	0.9108
298.15 K, m1 = 0.075	1000.89	0.9207
298.15 K, m1 = 0.1	1002.14	0.93
298.15 K, m1 = 0.125	1003.4	0.9393
298.15 K, m1 = 0.15	1004.64	0.9486
298.15 K, m1 = 0.175	1005.88	0.9579
298.15 K, m1 = 0.2	1007.11	0.9668
303.15 K, m1 = 0.025	996.96	0.8062
303.15 K, m1 = 0.05	998.24	0.8145
303.15 K, m1 = 0.075	999.51	0.8225
303.15 K, m1 = 0.1	1000.78	0.8304
303.15 K, m1 = 0.125	1002.03	0.838
303.15 K, m1 = 0.15	1003.28	0.8457
303.15 K, m1 = 0.175	1004.53	0.8533
303.15 K, m1 = 0.2	1005.76	0.8609
308.15 K, m1 = 0.025	995.36	0.7267
308.15 K, m1 = 0.05	996.65	0.7336
308.15 K, m1 = 0.075	997.93	0.7403
308.15 K, m1 = 0.1	999.2	0.7471
308.15 K, m1 = 0.125	1000.46	0.7535
308.15 K, m1 = 0.15	1001.72	0.7601
308.15 K, m1 = 0.175	1002.97	0.7664
308.15 K, m1 = 0.2	1004.22	0.7726
313.15 K, m1 = 0.025	993.55	0.6593
313.15 K, m1 = 0.05	994.85	0.6652
313.15 K, m1 = 0.075	996.14	0.6708
313.15 K, m1 = 0.1	997.42	0.6764
313.15 K, m1 = 0.125	998.69	0.6818
313.15 K, m1 = 0.15	999.96	0.6873
313.15 K, m1 = 0.175	1001.22	0.6926
313.15 K, m1 = 0.2	1002.47	0.6976
318.15 K, m1 = 0.025	991.55	0.6031
318.15 K, m1 = 0.05	992.86	0.608
318.15 K, m1 = 0.075	994.16	0.6128
318.15 K, m1 = 0.1	995.45	0.6174
318.15 K, m1 = 0.125	996.74	0.622
318.15 K, m1 = 0.15	998.01	0.6266
318.15 K, m1 = 0.175	999.28	0.6311
318.15 K, m1 = 0.2	1000.55	0.6355
